{"source": "patent US20020173538A1", "about": "“Method for sensitizing cancer cells to cancer therapies with a mevalonate-reducing compound” (priority 2000, published 2002)", "key": {"[1]": {"experiment": "MTT cell viability assay, Hep G2 cells (serum-free DMEM)", "conditions": "human, Hep G2 cells, Cell viability", "text": "(§1) Human hepatoma cell lines Hep G2 and Hep 3 were chosen as the in vitro models of hepatocytes and hepatoma, respectively."}, "Hep G2 cells": {"test_system": "Hep G2 cells", "experiment": "MTT cell viability assay, Hep G2 cells (serum-free DMEM)", "conditions": "for IC50: Homo sapiens; for Cell viability (cell number): LOV 50 μM 48 hr", "text": "as §1"}, "Hep 3B/T2 cells": {"test_system": "Hep 3B/T2 cells", "experiment": "Tumor growth of Hep 3B/T2 cells in nude mice", "type": "in vivo, BALB/c-nu/nu nude mice", "from_the_text": "The descriptive statistics were summarized as mean±STD. For statistical analysis, Student's t-test was used to determine significance of mean differences between groups."}, "[2]": {"conditions": "Cycle 2 (Day 63), LOV 37.5 mg/kg/day p.o. days 28-34 and 49-55 and/or taxol 120 μg/kg/2 day i.p. day 36, 38, 40, 57, 59, 61"}}, "note": "Where two headings read alike, the source gives them in different places."}
{"smiles": "CC[C@H](C)C(=O)O[C@H]1C[C@@H](C)C=C2C=C[C@H](C)[C@H](CC[C@@H]3C[C@@H](O)CC(=O)O3)[C@H]21", "note": "[Lovastatin, lovastatin]", "values": [{"measurement": "viability at 48 h, 1 μM", "setting": "[1]; LOV 1 μM, 48 hr", "result": "91.8 ± 2.1", "unit": "%"}, {"measurement": "viability at 72 h, 1 μM", "setting": "[1]; LOV 1 μM, 72 hr", "result": "88.7 ± 1.3", "unit": "%"}, {"measurement": "viability at 48 h, 2 μM", "setting": "[1]; LOV 2 μM, 48 hr", "result": "90.7 ± 1.5", "unit": "%"}, {"measurement": "viability at 72 h, 2 μM", "setting": "[1]; LOV 2 μM, 72 hr", "result": "86.2 ± 1.9", "unit": "%"}, {"measurement": "viability at 48 h, 5 μM", "setting": "[1]; LOV 5 μM, 48 hr", "result": "87.2 ± 3.1", "unit": "%"}, {"measurement": "viability at 48 h, 5 μM", "setting": "[1]; LOV 5 μM, 48 hr, Table 4", "result": "87.2 ± 3.1", "unit": "%"}, {"measurement": "viability at 72 h, 5 μM", "setting": "[1]; LOV 5 μM, 72 hr", "result": "80.9 ± 4.4", "unit": "%"}, {"measurement": "viability at 72 h, 5 μM", "setting": "[1]; LOV 5 μM, 72 hr, Table 4", "result": "80.9 ± 4.4", "unit": "%"}, {"measurement": "viability at 96 h, 5 μM", "setting": "[1]; LOV 5 μM, 96 hr", "result": "63.2 ± 2", "unit": "%"}, {"measurement": "viability at 120 h, 5 µM", "setting": "[1]; LOV 5 μM, 120 hr", "result": "55.1 ± 5", "unit": "%"}, {"measurement": "viability at 48 h, 10 μM", "setting": "[1]; LOV 10 μM, 48 hr", "result": "85.8 ± 2.7", "unit": "%"}, {"measurement": "viability at 48 h, 10 μM", "setting": "[1]; LOV 10 μM, 48 hr, Table 4", "result": "85.8 ± 2.7", "unit": "%"}, {"measurement": "viability at 72 h, 10 μM", "setting": "[1]; LOV 10 μM, 72 hr", "result": "78.7 ± 5.3", "unit": "%"}, {"measurement": "viability at 72 h, 10 μM", "setting": "[1]; LOV 10 μM, 72 hr, Table 4", "result": "78.7 ± 5.3", "unit": "%"}, {"measurement": "viability at 96 h, 10 μM", "setting": "[1]; LOV 10 μM, 96 hr", "result": "55.1 ± 5", "unit": "%"}, {"measurement": "viability at 120 h, 10 µM", "setting": "[1]; LOV 10 μM, 120 hr", "result": "33.8 ± 3.8", "unit": "%"}, {"measurement": "viability at 48 h, 20 μM", "setting": "[1]; LOV 20 μM, 48 hr", "result": "79.9 ± 2.7", "unit": "%"}, {"measurement": "viability at 72 h, 20 μM", "setting": "[1]; LOV 20 μM, 72 hr", "result": "75.3 ± 4.2", "unit": "%"}, {"measurement": "viability at 72 h, 50 μM", "setting": "[1]; LOV 50 μM 48 hr, then LOV 50 μM without MVA another 24 hr", "result": "57.8 ± 6.2", "unit": "%"}, {"measurement": "viability at 96 h, 50 µM", "setting": "[1]; LOV 50 μM 48 hr, then LOV 50 μM without MVA another 48 hr", "result": "12.7 ± 2.6", "unit": "%"}, {"measurement": "viability at 120 h, 50 µM", "setting": "[1]; LOV 50 μM 48 hr, then LOV 50 μM without MVA another 72 hr", "result": "4 ± 0.6", "unit": "%"}, {"measurement": "viability at 48 h, 50 μM", "setting": "[1]; LOV 50 μM, 48 hr", "result": "73.1 ± 3.2", "unit": "%"}, {"measurement": "viability at 72 h, 50 μM", "setting": "[1]; LOV 50 μM, 72 hr", "result": "58.2 ± 4.2", "unit": "%"}, {"measurement": "viability at 72 h, 1 μM", "setting": "[1]; lovastatin 1 μM, 72 hr", "result": "88.7 ± 1.3", "unit": "%"}, {"measurement": "viability at 72 h, 2 μM", "setting": "[1]; lovastatin 2 μM, 72 hr", "result": "86.2 ± 1.9", "unit": "%"}, {"measurement": "viability at 48 h, 5 μM", "setting": "[1]; lovastatin 5 μM 48 hr, then no CAPE 48 hr", "result": "75.2 ± 1.6", "unit": "%"}, {"measurement": "viability at 48 h, 5 μM", "setting": "[1]; lovastatin 5 μM 48 hr, then no taxol 48 hr", "result": "85.8 ± 4.5", "unit": "%"}, {"measurement": "viability at 72 h, 5 μM", "setting": "[1]; lovastatin 5 μM 72 hr, then no taxol 48 hr", "result": "81.3 ± 3.8", "unit": "%"}, {"measurement": "viability at 72 h, 5 μM", "setting": "[1]; lovastatin 5 μM 72 hr, then no taxol 72 hr", "result": "67.2 ± 0.5", "unit": "%"}, {"measurement": "viability at 72 h, 5 μM", "setting": "[1]; lovastatin 5 μM alone, 72 hr, Table 23", "result": "66.8 ± 1.5", "unit": "%"}, {"measurement": "viability at 72 h, 5 μM", "setting": "[1]; lovastatin 5 μM, 72 hr", "result": "80.9 ± 4.4", "unit": "%"}, {"measurement": "viability at 48 h, 10 μM", "setting": "[1]; lovastatin 10 μM 48 hr, then no CAO 48 hr", "result": "75 ± 3.3", "unit": "%"}, {"measurement": "viability at 48 h, 10 μM", "setting": "[1]; lovastatin 10 μM 48 hr, then no CAPE 48 hr", "result": "66.7 ± 2.4", "unit": "%"}, {"measurement": "viability at 10 µM", "setting": "[1]; lovastatin 10 μM 48 hr, then no GL-M1 48 hr", "result": "76.9 ± 2.6", "unit": "%"}, {"measurement": "viability at 48 h, 10 μM", "setting": "[1]; lovastatin 10 μM 48 hr, then no taxol 48 hr", "result": "69.1 ± 3.1", "unit": "%"}, {"measurement": "viability at 72 h, 10 μM", "setting": "[1]; lovastatin 10 μM 72 hr, then no taxol 48 hr", "result": "54.7 ± 5.9", "unit": "%"}, {"measurement": "viability at 72 hr, 10 μM", "setting": "[1]; lovastatin 10 μM 72 hr, then no taxol 72 hr", "result": "48 ± 2.9", "unit": "%"}, {"measurement": "viability at 72 h, 10 μM", "setting": "[1]; lovastatin 10 μM alone, 72 hr, Table 23", "result": "57.8 ± 11.2", "unit": "%"}, {"measurement": "viability at 96 h, 10 μM", "setting": "[1]; lovastatin 10 μM alone, 96 hr, Table 10", "result": "51.9 ± 4.4", "unit": "%"}, {"measurement": "viability at 96 h, 10 μM", "setting": "[1]; lovastatin 10 μM alone, 96 hr, Table 21", "result": "52.4 ± 5.5", "unit": "%"}, {"measurement": "viability at 96 h, 10 μM", "setting": "[1]; lovastatin 10 μM alone, 96 hr, Table 25", "result": "50.3 ± 4.9", "unit": "%"}, {"measurement": "viability at 72 h, 10 μM", "setting": "[1]; lovastatin 10 μM, 72 hr", "result": "78.7 ± 5.3", "unit": "%"}, {"measurement": "viability at 72 h, 20 μM", "setting": "[1]; lovastatin 20 μM, 72 hr", "result": "75.3 ± 4.2", "unit": "%"}, {"measurement": "viability at 48 h, 50 μM", "setting": "[1]; lovastatin 50 μM 48 hr, then no taxol 48 hr", "result": "14.6 ± 1.3", "unit": "%"}, {"measurement": "viability at 72 h, 50 μM", "setting": "[1]; lovastatin 50 μM, 72 hr", "result": "58.2 ± 4.2", "unit": "%"}, {"measurement": "IC50", "setting": "Hep G2 cells; HepG2, 48 h, read-out: IC50 (cell viability), 48 hr, Table 3", "result": "97.2 ± 2.1", "unit": "µM"}, {"measurement": "IC50", "setting": "Hep G2 cells; HepG2, 48 h, read-out: IC50 (cell viability), 48 hr, Table 4", "result": 97.2, "unit": "µM"}, {"measurement": "IC50", "setting": "Hep G2 cells; HepG2, 48 h, read-out: IC50 of lovastatin (cell viability), 48 hr treatment", "result": "97.2 ± 2.1", "unit": "µM"}, {"measurement": "IC50", "setting": "Hep G2 cells; HepG2, 72 h, read-out: IC50 (cell viability), 72 hr, Table 3", "result": "63.6 ± 3.7", "unit": "µM"}, {"measurement": "IC50", "setting": "Hep G2 cells; HepG2, 72 h, read-out: IC50 (cell viability), 72 hr, Table 4", "result": 62.3, "unit": "µM"}, {"measurement": "IC50", "setting": "Hep G2 cells; HepG2, 72 h, read-out: IC50 of lovastatin (cell viability), 72 hr treatment", "result": "62.3 ± 3.7", "unit": "µM"}, {"measurement": "IC50", "setting": "Hep G2 cells; HepG2, 96 h, read-out: IC50 (cell viability), 96 hr", "result": 13.1, "unit": "µM"}, {"measurement": "IC50", "setting": "Hep G2 cells; HepG2, 120 h, read-out: IC50 (cell viability), 120 hr", "result": 6.2, "unit": "µM"}, {"measurement": "Cell viability (cell number)", "setting": "Hep G2 cells; then LOV 50 μM without MVA another 24 hr", "result": "10.6 ± 0.7^b 1 × 10^3 cells"}, {"measurement": "Cell viability (cell number)", "setting": "Hep G2 cells; then LOV 50 μM without MVA another 48 hr", "result": "3.6 ± 1.6^b 1 × 10^3 cells"}, {"measurement": "Cell viability (cell number)", "setting": "Hep G2 cells; then LOV 50 μM without MVA another 72 hr", "result": "1.7 ± 0.5^b 1 × 10^3 cells"}, {"measurement": "Tumor size", "setting": "Hep 3B/T2 cells; Cycle 1 (Day 42), LOV 37.5 mg/kg/day p.o. days 28-34 and 49-55 and/or taxol 120 μg/kg/2 day i.p. day 36, 38, 40, 57, 59, 61", "result": 0.533, "unit": "cm^3"}, {"measurement": "Tumor size", "setting": "Hep 3B/T2 cells; [2]", "result": 1.263, "unit": "cm^3"}, {"measurement": "percentage of inhibition of tumor size", "setting": "Hep 3B/T2 cells; [2]", "result": "(−49.5%"}, {"measurement": "Tumor size", "setting": "Hep 3B/T2 cells; Day 15, LOV 75 mg/kg/day p.o. days 8-14 and/or taxol 120 μg/kg/day i.p. days 15-19, n = 3", "result": 0.050, "unit": "cm^3"}, {"measurement": "Tumor size", "setting": "Hep 3B/T2 cells; Day 20, LOV 75 mg/kg/day p.o. days 8-14 and/or taxol 120 μg/kg/day i.p. days 15-19, n = 3", "result": 0.051, "unit": "cm^3"}, {"measurement": "Tumor size", "setting": "Hep 3B/T2 cells; Day 23, LOV 75 mg/kg/day p.o. days 8-14 and/or taxol 120 μg/kg/day i.p. days 15-19, n = 3", "result": 0.059, "unit": "cm^3"}]}
